The text below walks through data of US11331294B2, “Benzoquinone derivative E3330 in combination with chemotherapeutic agents for the treatment of bladder cancer” (Indiana University Research and Technology Corporation, priority 2007, dated 2022).

The test system of one assay is bladder cancer cells. Briefly: BrdU incorporation assay in cultured cells. In kind it is cell-based. Particulars: IC50 concentration, 24 hours; control 11.2%±0.84. As to the method: To determine the proliferation rate of cells in response to APE1/Ref-1 redox inhibitors, cells were grown in the culture conditions described above and treated with inhibitors as described above, in chamber slides. After 24 hours in culture with inhibitors or vehicle, all cells were treated with 3.1 μg/ml BrdU (in sterile PBS; 0.1%) for one hour. Cells were fixed and permeablized with 4% paraformaldehyde and stained for BrdU incorporation with the antibody and methodology described in the Roche BrdU labeling Kit, (Risch-Rotkreuz, Switzerland), using secondary antibodies. Positive cells were captured on a Leica 6000 fluorescent microscope and were quantified relative to Hoechst positive nuclei (total live cells).
To further characterize this effect, it was analyzed whether this reduced cell number was due to decreases in proliferation, increases in apoptosis, or both.
On the technique in general: Uptake of a labelled nucleoside into DNA is a usual measure of proliferation.

Assay [1] deals with T24 human bladder cancer cells. Briefly: T24 subcutaneous flank xenograft. In kind it is in vivo, athymic nude mice. The following applies: for tumor weight at sacrifice: ip every 12 hours, vehicle 1.0±0.2 g; for tumor growth compared to vehicle control / reduction in survivin expression in harvested tumors: ip twice daily. As to the method:
[…] T24 human bladder cancer cells were grown in conditions described above and harvested with 0.05% Trypsin, centrifuged, and resuspended in a 50:50 solution of Matrigel: RPMI medium. For each subcutaneous tumor, a 100 μl volume of this suspension was implanted in the hind flank of […]. […] BrdU was injected into the animals 2 hours prior to sacrifice and tumor tissues were harvested and split into either snap frozen tissues for protein harvest and molecular analysis or fixed in formalin and processed for histological analysis, and then analyzed for survivin, Cyclin D1 levels (immunofluorescence and immunoblotting) for target protein assessment and BrdU incorporation (immunofluorescence).
Prior to sacrifice, mice were injected with BrdU and BrdU incorporation was visualized and quantitated via red fluorescence.

The test system of assay [2] is retinal vascular endothelial cells (RVEC). Briefly: MTS proliferation assay of retinal endothelial cells. In kind it is cell-based, mouse. Here is the method: Inhibition of endothelial cell proliferation. […] Young adult mouse retinal tissues were dissected out and digested. Cells were plated in 24 well plates and grown to confluence, then seeded to 96 well plates for assay. Three days after seeding, the total number of cells was assayed by MTS measurement (Promega). The proliferation rate was calculated according to manufacturer's instructions. Proliferations of RECs from different groups were compared for statistical significance. APX3330 (RN3-3) blocked REC proliferation indicative of anti-blood vessel formation effects. (FIG. 10)
APX3330 10-100 μM decreased cell proliferation of retinal vascular endothelial cells (RVEC) (FIG. 11). In basal media, APX3330 inhibited REVC cell proliferation at all 4 concentrations tested, 10 μM-57%, 25 μM-93% (p<0.01).
On the technique in general: Tetrazolium dyes change colour on reduction, which living cells bring about.

Another assay concerns MCF-7 tumor cells. Briefly: MTS cell survival assay MCF-7. In kind it is cell-based, human. The following applies: about 24 or 72 h. Here is the method:
(§1) Decreased cancer cell survival. MCF-7 or OVCAR-3 cells (about 2-4,000) were aliquoted into each well of a 96-well plate in triplicate and allowed to adhere overnight. APX3330 (RN3-3) was added to the cultures. After about 24 or 72 h, about 0.05 mg/mL 3-(4-5-Dimethylthiazol-2-yl)-5-(3-carboxymethoxyphenyl)-2-(4-sulfophenyl)-2H-tetrazolium salt (MTS) reagent was added to each well and incubated at about 37° C. for about 4 h followed by absorbance measurement at 490 nm. The values were standardized to wells containing media alone. […] Similar effects can be seen in multiple myeloma, prostate, non-small cell lung carcinoma, colon, and glioma derived cells.

A further assay relates to OVCAR-3 tumor cells. Briefly: MTS cell survival assay OVCAR-3. In kind it is cell-based, human. The following applies: about 24 or 72 h. As to the method: as §1
For the next assay, the system named is multiple myeloma cells. Briefly: Phospho-histone H2AX western blot (DNA double stranded breaks). In kind it is cell-based. Particulars: combination with melphalan. Here is the method: APX3330 in combination with chemotherapeutic Melphalan. […] Synergistic plots made using CalcuSyn software. APX3330 was either given alone or in combination with melphalan. As an indicator of DNA double stranded breaks (DSBs), the phosphorylation of histone H2AX at Ser^139 was measured with a phosphorylation-specific H2AX antibody from Upstate Cell Signaling Solutions (Waltham, Md.). Cells were treated with melphalan alone or melphalan plus APX3330. After drug treatment, exponentially growing cells were harvested, washed in cold PBS, and lysed in about 100 μL RIPA assay buffer as described above. Protein was quantified and electrophoresed in SDS gel-loading buffer on a 12% SDS-polyacrylamide gel. Mouse monoclonal anti-phosphohistone H2AX (about 1:1000) or anti-actin antibody (about 1:1000; as a loading control, LabVision Corp., NeoMarkers, Fremont, Calif.) was used to probe for protein levels as described previously. Bands were detected using a chemiluminescence kit from Roche Applied Biosciences (Indianapolis, Ind.). The bands were visualized using Bio-Rad Chemidoc XRS (Hercules, Calif.) and quantitated using Chemidoc software, Quantity One 4.6.1.
(In general: In western blotting, separated proteins are transferred to a membrane and probed.)

For a further assay, the system named is HL-60 cells. Briefly: HL-60 differentiation and apoptosis with retinoic acid. In kind it is cell-based. Here is the method: APX3330 in combination with Retinoic Acid. […] HL-60 cells were treated with either vehicle (EtOH; control), APX3330, retinoic acid (RA) or APX3330 and RA at the concentrations indicated and morphology determined on day six. Morphological analysis indicated an increase in the differentiation of the HL-60 cells treated with APX3330 (RN3-3).

The mark [3] stands for this setting: APX3330 50 mg/kg, APX2009 25 mg/kg.
Where [4] appears, read: APX3330 50 mg/kg, APX2009 25 mg/kg, immunoblot.

`CCC/C(=C\C1=C(OC)C(=O)c2ccccc2C1=O)C(=O)N(CC)CC` [APX2009, [(2E)-2-[(3-methoxy-1,4-dioxo-1,4-dihydronaphthalen-2-yl)methylidene]-N,N-diethylpentanamide]]: the BrdU-positive cells in the assay with bladder cancer cells is 6.9%±0.58. For the same compound, the “decrease in BrdU+ cells in tumors” value in assay [1] (APX2009 25 mg/kg ip twice daily) amounted to 60%. In assay [1] (setting [3]), the “tumor weight at sacrifice” value was 0.37 ± 0.14 g and the “tumor growth compared to vehicle control” value is recorded as “significantly reduced tumor growth”. Moreover, in assay [1] (setting [4]), the “reduction in survivin expression in harvested tumors” value turned out to be 64% and the “ratio of cleaved caspase 3 to total caspase 3 in harvested tumors” value is “increase in the ratio of cleaved caspase 3”.

Take `CCCCCCCCC/C(=C\C1=C(C)C(=O)C(OC)=C(OC)C1=O)C(=O)O` [APX3330]: testing at 10 µM in assay [2] (Mus musculus, Endothelial cell, 10 μM, basal media) gave an inhibition of 57%. This compound returned an inhibition at 25 µM in assay [2] (Mus musculus, Endothelial cell, 25 μM, basal media) of 93%. For the same compound, the “retinal endothelial cell proliferation” value in assay [2] (about 10-100 μM, with or without bFGF) is reported as “decreased retinal endothelial cell proliferation”. Also, the “killing of MCF-7 tumor cells” value in the assay on MCF-7 tumor cells is “dose dependently killed”. Also, in the assay with OVCAR-3 tumor cells, the “killing of OVCAR-3 tumor cells” value is on record as “dose dependently killed”. Besides, in the assay with multiple myeloma cells, the “DNA double stranded breaks (phospho-H2AX), melphalan plus APX3330 compared to melphalan alone” value is on record as “increase in DSBs”. Also, the “increase in cells undergoing apoptosis, APX3330 and RA compared with RA alone” value in the assay on HL-60 cells (25 μM APX3330, day 6) is roughly 1.5. In addition, the “reduction of RA required for same level of differentiation (CD11)” value with HL-60 cells (addition of APX3330 to RA) was “about 1000 fold”. Besides, the “cell differentiation in combination with retinoic acid” value in the assay on HL-60 cells (day six, morphology) is “enhanced the effects of retinoic acid on promoting cell differentiation”. In the assay with HL-60 cells (lower doses of RA), the “HL-60 cells undergoing apoptosis (annexin/PI) at lower doses of RA” value was “did not significantly enhance the level of HL-60 cells undergoing apoptosis”. In addition, the BrdU-positive cells in the assay on bladder cancer cells is given as 7.8%±0.64. Moreover, in assay [1] (setting [3]), the “tumor weight at sacrifice” value is 0.43 ± 0.10 g and the “tumor growth compared to vehicle control” value is “significantly reduced tumor growth”. For the same compound, in assay [1] (setting [4]), the “reduction in survivin expression in harvested tumors” value is listed as 42%.

For orientation: inhibition means the relative decrease from the control value, in per cent. Low readings indicate a weak effect, high ones a strong effect.
